Consider 26 molecules from US9428542B2, “Lupane triterpenoid derivatives and pharmaceutical use thereof” (priority 2012, dated 2016).

Where two headings read alike, the source gives them in different places.

The subject of data set [1] is HIV-1IIIB. Briefly: HIV-1 full replication assay (HIV-1IIIB-infected MT-2 cells, supernatant read out on TZM-bl cells, β-Gal). It counts as cell-based. The procedure:
The antiviral activity of the compounds of the present invention was determined in a HIV-1 full replication assay.
In this assay, MT-2 cells that are infected with HIV-1IIIB were co-cultured with different concentration of the tested compounds for 3 days and then supernatant is transferred into new 384-well plates containing TZM-bl cells (also called JC53-bl). TZM-bl cells that could be infected by various kinds of HIV-1 strains stably express a great amount of HIV-1 receptor, co-receptor CD4 molecular, and co-receptor CXCR4 and CCR5. TZM-bl cells harbor LTR-luciferase and β-gal two report genes. The expression of luciferase and β-gal reporter directed by HIV-1 LTR can be activated by Tat protein generated after HIV infection, and the quantity of expression is proportional to the quantity of HIV-1. Compounds that interfere with virus replication in MT-2 cells, maturation of the virus, or post-entry steps in the HIV lifecycle decrease the luciferase signal or β-gal signal. In this experiment, BVM (Bevirimat, PA-457) is used as a positive control drug.
Method for Inhibiting HIV-1 Replication Assay:
The MT-2 cells are infected at a Multiciplicity (MOI) of 0.01 TCID50, and then the MT-2 cells suspension was diluted to a needed concentration. 90 μl of the MT-2 cells suspension from above was added into 384-well plates containing 10 μl of the tested compounds.
Compounds were dissolved in DMSO and tested as 11 points 3-fold serial dilutions. After addition of cells to compound plates, plates were placed to humidified 5% CO2 37 incubator for 3 days. 10 μl of cells culture supernatant from the incubated plates was transferred into new black 384-well plates.
Adjusted the TZMb1 cells concentration and 40 μl of TZMb1 cells was added into each well in the black 384-well plates. After addition of the TZMb1 cells to the black plates, black plates were placed to humidified 5% CO2 37 incubator for 24 h, then β-Gal activity was measured.
The anti viral activity %=(measured number-lowest mean number)/(highest mean number-lowest mean number)×100. The IC50 values were calculated by Median Equation and the IC curve was generated by Graphpad Prism V 5.03.
(§1) TC50 is referred to the toxicity in MT-2 cells by the compounds tested at 50% concentration; IC50 is referred to the inhibiting HIV-1IIIB replication in MT-2 cells by the compounds tested at 50% concentration; Therapeutic Index (TI)=TC50/IC50.

Data set [2] deals with MT-2 cells. Briefly: Compounds' cytotoxicity assay in MT-2 cells (CellTiter-Glo). It counts as cell-based. Set-up: unit not given here. The settings on record: toxicity in MT-2 cells, 3 days. The procedure: 3. Method for Compounds' Cytotoxicity Assay:
The MT-2 cells are diluted to a needed concentration. 90 μl of the MT-2 cells suspension was added into 384-well plates containing 10 μl of the tested compounds. Compounds were dissolved in DMSO and tested as 11 points 3-fold serial dilutions. After addition of cells to compound plates, plates were placed to humidified 5% CO2 37 incubator for 3 days. The Luciferase activity was measured by CellTiter-Glo® Luminescent Cell Viability Assay kit (Promega Corp., WI, USA).
as §1
A general note: In ATP-based viability assays light output follows the ATP content of the culture.

[3] abbreviates: Human immunodeficiency virus 1, MT2, 72 h, inhibiting HIV-1IIIB replication in MT-2 cells, 3 days, read-out: IC50 (PM).
[4] abbreviates: Human immunodeficiency virus 1, MT2, HIV replication in MT-2 cell (HIV-1IIIB) assay, read-out: IC50.

Take `CC(C)C1=C2[C@H]3CC[C@@H]4[C@@]5(C)CC[C@H](OC(=O)CC(C)(C)C(=O)O)C(C)(C)[C@@H]5CC[C@@]4(C)[C@]3(C)CC[C@@]2(Cc2nnc(-c3ccc(Cl)cn3)o2)CC1=O` [Compound 22-3]: the IC50 (as a rule, the concentration needed to halve the response being measured) in data set [1] (setting [3]) is 1.6 nM. For the same molecule, in data set [2], the “TC50 (PM)” value amounted to 36.
On the same counts, the results for `CC(C)C1=C2[C@H]3CC[C@@H]4[C@@]5(C)CC[C@H](OC(=O)CC(C)(C)C(=O)O)C(C)(C)[C@@H]5CC[C@@]4(C)[C@]3(C)CC[C@@]2(Nc2nnc(-c3ccc(Cl)cn3)o2)CC1=O` [Compound 141-2] are 0.26 nM and 24.
As for `CC(C)C1=C2[C@H]3CC[C@@H]4[C@@]5(C)CC[C@H](OC(=O)CC(C)(C)C(=O)O)C(C)(C)[C@@H]5CC[C@@]4(C)[C@]3(C)CC[C@@]2(c2nnc(-c3cccnc3)o2)CC1=O` [Compound 27-9], in data set [1] (setting [3]), the IC50 amounted to 8.8 nM. For the same molecule, in data set [2], the “TC50 (PM)” value worked out at 200.
Take `CC(C)C1=C2[C@H]3CC[C@@H]4[C@@]5(C)CC[C@H](OC(=O)CC(C)(C)C(=O)O)C(C)(C)[C@@H]5CC[C@@]4(C)[C@]3(C)CC[C@@]2(c2nnc(-c3ccc(Cl)cc3)n2CCN(C)C)CC1=O` [Compound 116-3]: the IC50 in data set [1] (setting [3]) was 0.55 nM. In data set [2], the “TC50 (PM)” value was 33.
In the case of `CNCCn1c(C[C@@]23CC[C@]4(C)[C@H](CC[C@@H]5[C@@]6(C)CC[C@H](OC(=O)CC(C)(C)C(=O)O)C(C)(C)[C@@H]6CC[C@]54C)C2=C(C(C)C)C(=O)C3)nnc1-c1ccc(Cl)cc1` [Compound 116-2], the IC50 in data set [1] (setting [3]) stood at 4.8 nM. Further, in data set [2], the “TC50 (PM)” value is listed as 27.
In the case of `CC(C)C1=C2[C@H]3CC[C@@H]4[C@@]5(C)CC[C@H](OC(=O)CC(C)(C)C(=O)O)C(C)(C)[C@@H]5CC[C@@]4(C)[C@]3(C)CC[C@@]2(Cc2nnc(-c3ccc(Br)cn3)o2)CC1=O` [Compound 22-14], in data set [1] (setting [3]), the IC50 is no more than 0.17 nM. Moreover, the “TC50 (PM)” value in data set [2] was determined as 200.
In the case of `CC(C)C1=C2[C@H]3CC[C@@H]4[C@@]5(C)CC[C@H](OC(=O)CC(C)(C)C(=O)O)C(C)(C)[C@@H]5CC[C@@]4(C)[C@]3(C)CC[C@@]2([C@@H](O)c2nnc(-c3ccc(Cl)cc3)n2CCN(C)C)CC1=O` [Compound 165-1], in data set [1] (setting [4]), the IC50 was less than 2 nM.
`CC(C)C1=C2[C@H]3CC[C@@H]4[C@@]5(C)CC[C@H](OC(=O)CC(C)(C)C(=O)O)C(C)(C)[C@@H]5CC[C@@]4(C)[C@]3(C)CC[C@@]2(Cc2nnc(-c3ccc(F)cn3)o2)CC1=O` [Compound 22-18]: the half-maximal inhibitory concentration (IC50) in data set [1] (setting [3]) amounted to 1.7 nM. In data set [2], the “TC50 (PM)” value is reported as 48.
On the same counts, the results for `CC(C)C1=C2[C@H]3CC[C@@H]4[C@@]5(C)CC[C@H](OC(=O)CC(C)(C)C(=O)O)C(C)(C)[C@@H]5CC[C@@]4(C)[C@]3(C)CC[C@@]2(Cc2nc(-c3ccc(Cl)cc3)no2)CC1=O` [Compound 108-2] are 160 nM and 26.
On the same counts, the results for `CC(C)C1=C2[C@H]3CC[C@@H]4[C@@]5(C)CC[C@H](OC(=O)CC(C)(C)C(=O)O)C(C)(C)[C@@H]5CC[C@@]4(C)[C@]3(C)CC[C@@]2(c2cc(=O)n(-c3ccc(Cl)cc3)n2CCN)CC1=O` [Compound 155-1] are 1.6 nM and 78.
Consider `CC(C)C1=C2[C@H]3CC[C@@H]4[C@@]5(C)CC[C@H](OC(=O)CC(C)(C)C(=O)O)C(C)(C)[C@@H]5CC[C@@]4(C)[C@]3(C)CC[C@@]2(Cc2nnc(Cc3ccc(Cl)cc3)o2)CC1=O` [Compound 33], for which, in data set [1] (setting [3]), the half-inhibitory concentration (IC50) was determined as 1.6 nM. Also, in data set [2], the “TC50 (PM)” value worked out at 18.
On the same counts, the results for `CC(C)C1=C2[C@H]3CC[C@@H]4[C@@]5(C)CC[C@H](OC(=O)CC(C)(C)C(=O)O)C(C)(C)[C@@H]5CC[C@@]4(C)[C@]3(C)CC[C@@]2(c2nnc(Cc3ccc(Cl)cc3)o2)CC1=O` [Compound 38] are 1.6 nM and 100.
On the same counts, the results for `CC(C)C1=C2[C@H]3CC[C@@H]4[C@@]5(C)CC[C@H](OC(=O)CC(C)(C)C(=O)O)C(C)(C)[C@@H]5CC[C@@]4(C)[C@]3(C)CC[C@@]2(Cc2cc(=O)n(-c3ccc(Cl)cc3)n2C)CC1=O` [98′-1] are no more than 0.17 nM and 62.
On to `CC(C)C1=C2[C@H]3CC[C@@H]4[C@@]5(C)CC[C@H](OC(=O)CC(C)(C)C(=O)O)C(C)(C)[C@@H]5CC[C@@]4(C)[C@]3(C)CC[C@@]2([C@@H](O)c2nnc(-c3ccc(Cl)cc3)n2CCN)CC1=O` [Compound 164-1], for which, in data set [1] (setting [4]), the half-inhibitory concentration (IC50) is less than 2 nM.
For the molecule `CCn1c([C@@]23CC[C@]4(C)[C@H](CC[C@@H]5[C@@]6(C)CC[C@H](OC(=O)CC(C)(C)C(=O)O)C(C)(C)[C@@H]6CC[C@]54C)C2=C(C(C)C)C(=O)C3)cc(=O)n1-c1ccc(Cl)cn1` [Compound 98-6], in data set [1] (setting [3]), the IC50 was no more than 0.17 nM. In addition, the “TC50 (PM)” value in data set [2] is 13.
On the same counts, the results for `CC(C)C1=C2[C@H]3CC[C@@H]4[C@@]5(C)CC[C@H](OC(=O)CC(C)(C)C(=O)O)C(C)(C)[C@@H]5CC[C@@]4(C)[C@]3(C)CC[C@@]2(Cc2nnc(-c3ccccc3)o2)CC1=O` [Compound 22-2] are 1.7 nM and 28.
On the same counts, the results for `CC(C)C1=C2[C@H]3CC[C@@H]4[C@@]5(C)CC[C@H](OC(=O)CC(C)(C)C(=O)O)C(C)(C)[C@@H]5CC[C@@]4(C)[C@]3(C)CC[C@@]2(c2nnc(N(CCN(C)C)c3ccc(Cl)cc3)o2)CC1=O` [Compound 133-2] are no more than 0.17 nM and 47.
For the molecule `CC(C)C1=C2[C@H]3CC[C@@H]4[C@@]5(C)CC[C@H](OC(=O)CC(C)(C)C(=O)O)C(C)(C)[C@@H]5CC[C@@]4(C)[C@]3(C)CC[C@@]2(c2c(Cl)c(=O)n(-c3ccc(Cl)cc3)n2C)CC1=O` [Compound 98-8], the IC50 in data set [1] (setting [4]) is less than 2 nM.
As to `CC(C)C1=C2[C@H]3CC[C@@H]4[C@@]5(C)CC[C@H](OC(=O)CC(C)(C)C(=O)O)C(C)(C)[C@@H]5CC[C@@]4(C)[C@]3(C)CC[C@@]2(Cc2cc(=O)n(-c3ccc(Cl)cn3)n2C)CC1=O` [98′-2], the IC50 in data set [1] (setting [3]) was found to be 0.37 nM. For the same molecule, the “TC50 (PM)” value in data set [2] stood at 56.
On to `CC(C)C1=C2[C@H]3CC[C@@H]4[C@@]5(C)CC[C@H](OC(=O)CC(C)(C)C(=O)O)C(C)(C)[C@@H]5CC[C@@]4(C)[C@]3(C)CC[C@@]2(c2cc(=O)n(CCN(C)C)n2C)CC1` [Compound 89-3], for which the IC50 in data set [1] (setting [4]) is less than 5 nM.
Consider `C=C(C)[C@@H]1CC[C@]2(C(=O)O)CC[C@]3(C)[C@H](CC[C@@H]4[C@@]5(C)CC[C@H](OC(=O)CC(C)(C)C(=O)O)C(C)(C)[C@@H]5CC[C@]43C)[C@@H]12` [BVM, Bevirimat, reference compound], for which the concentration for half-maximal inhibition (IC50) in data set [1] (Human immunodeficiency virus 1, MT2, 72 h, read-out: IC50 (PM)) came to 5 nM.
In the case of `CC(C)C1=C2[C@H]3CC[C@@H]4[C@@]5(C)CC[C@H](OC(=O)CC(C)(C)C(=O)O)C(C)(C)[C@@H]5CC[C@@]4(C)[C@]3(C)CC[C@@]2(c2c(Cl)c(=O)n(-c3ccc(Cl)cc3)n2CCN)CC1=O` [Compound 155-2], the IC50 in data set [1] (setting [4]) was less than 2 nM.
For `CC(C)C1=C2[C@H]3CC[C@@H]4[C@@]5(C)CC[C@H](OC(=O)CC(C)(C)C(=O)O)C(C)(C)[C@@H]5CC[C@@]4(C)[C@]3(C)CC[C@@]2(c2cc(=O)n(Cc3ccc(Cl)cc3)n2C)CC1=O` [Compound 91-1], the “TC50 (PM)” value in data set [2] amounted to 41.
Take `CC(C)C1=C2[C@H]3CC[C@@H]4[C@@]5(C)CC[C@H](OC(=O)CC(C)(C)C(=O)O)C(C)(C)[C@@H]5CC[C@@]4(C)[C@]3(C)CC[C@@]2(c2cc(=O)n(CCN(C)C)n2C)CC1=O` [Compound 91-4]: the IC50 in data set [1] (setting [4]) was less than 2 nM.
With `CC(C)C1=C2[C@H]3CC[C@@H]4[C@@]5(C)CC[C@H](OC(=O)CC(C)(C)C(=O)O)C(C)(C)[C@@H]5CC[C@@]4(C)[C@]3(C)CC[C@@]2(c2cc(=O)n(Cc3ccc(Cl)cc3)n2C)CC1=O` [91′-1], in data set [2], the “TC50 (PM)” value worked out at 22.
For `CC(C)C1=C2[C@H]3CC[C@@H]4[C@@]5(C)CC[C@H](OC(=O)CC(C)(C)C(=O)O)C(C)(C)[C@@H]5CC[C@@]4(C)[C@]3(C)CC[C@@]2(c2c(Cl)c(=O)n(-c3ccc(Cl)cc3)n2CCN(C)C)CC1=O` [Compound 156-2], in data set [1] (setting [4]), the IC50 was less than 2 nM.
